From article PMC9833666, “Designing and identifying β-hairpin peptide macrocycles with antibiotic potential” (Science Advances, 2023)
Bridge positions count the residues as written; N and C are the ends. Peptide text beside a SMILES is read from it.

Test system: Escherichia coli W3110
Format: cell-based
Conditions: for Ec W3110 MIC MH: E. coli W3110, MH medium; for Ec W3110 MIC RPMI: E. coli W3110, RPMI medium

Compound | W3110 MIC | Ec W3110 MIC MH | Ec W3110 MIC RPMI | W3110 MIC MH | W3110 MIC RPMI
CC[C@H](C)[C@@H]1NC(=O)[C@H](CCCCN)NC(=O)[C@H](CC(C)C)NC(=O)[C@H](CCCNC(=N)N)NC(=O)CNC(=O)CNC(=O)[C@H](CCCNC(=N)N)NC(=O)[C@H](CC(N)=O)NC(=O)[C@H](CC(N)=O)NC(=O)[C@H](C(C)C)NC(=O)[C@H](CCCNC(=N)N)NC(=O)[C@H](C(C)C)NC(=O)[C@H]([C@@H](C)O)NC(=O)[C@H](C(C)C)NC(=O)[C@@H](N)CSSC[C@@H](C(=O)O)NC(=O)[C@H](C(C)C)NC(=O)[C@H](CCC(N)=O)NC(=O)[C@H](CC(C)C)NC(=O)[C@H]([C@@H](C)O)NC1=O [SyRA-14] (H-CVTVRVNNRGGRLKITLQVC-OH; disulfide 1-20) | >256 µg/mL |  |  |  | 
CC(C)C[C@@H]1NC(=O)[C@H](CCCNC(=N)N)NC(=O)[C@H](CCCNC(=N)N)NC(=O)[C@H](CCCNC(=N)N)NC(=O)[C@H](CCCNC(=N)N)NC(=O)[C@H](CC(N)=O)NC(=O)[C@H](CC(N)=O)NC(=O)[C@H](CC(C)C)NC(=O)[C@H](CCCNC(=N)N)NC(=O)[C@H](C(C)C)NC(=O)[C@H](CCCNC(=N)N)NC(=O)[C@H](C(C)C)NC(=O)[C@@H](N)CSSC[C@@H](C(=O)O)NC(=O)[C@H](C(C)C)NC(=O)[C@H](CCC(=O)O)NC(=O)[C@H](CC(C)C)NC(=O)[C@H](CO)NC(=O)[C@H](C(C)C)NC(=O)[C@H](CCCCN)NC1=O [SySA-16] (H-CVRVRLNNRRRRLKVSLEVC-OH; disulfide 1-20; N-terminus and C-terminus assumed) |  | 32 µg/mL | 32 µg/mL | 32 µg/mL | 32 µg/mL
CC(C)C[C@@H]1NC(=O)CNC(=O)[C@H](CCCNC(=N)N)NC(=O)[C@H](CCCNC(=N)N)NC(=O)[C@H](CCCNC(=N)N)NC(=O)[C@H](CC(N)=O)NC(=O)[C@H](CC(N)=O)NC(=O)[C@H](CC(C)C)NC(=O)[C@H](CCCNC(=N)N)NC(=O)[C@H](C(C)C)NC(=O)[C@H](CCCNC(=N)N)NC(=O)[C@H](C(C)C)NC(=O)[C@@H](N)CSSC[C@@H](C(=O)O)NC(=O)[C@H](C(C)C)NC(=O)[C@H](CCC(N)=O)NC(=O)[C@H](CC(C)C)NC(=O)[C@H]([C@@H](C)O)NC(=O)[C@H](C(C)C)NC(=O)[C@H](CCCCN)NC1=O [SySA-45] (H-CVRVRLNNRRRGLKVTLQVC-OH; disulfide 1-20; N-terminus and C-terminus assumed) |  | 256 µg/mL | 32 µg/mL | 256 µg/mL | 32 µg/mL
CC(C)C[C@@H]1NC(=O)[C@H](CCCNC(=N)N)NC(=O)[C@H](CCCNC(=N)N)NC(=O)[C@H](CCCNC(=N)N)NC(=O)CNC(=O)[C@H](CC(N)=O)NC(=O)[C@H](CC(N)=O)NC(=O)[C@H](C(C)C)NC(=O)[C@H](CCCNC(=N)N)NC(=O)[C@H](C(C)C)NC(=O)[C@H](CCCNC(=N)N)NC(=O)[C@H](C(C)C)NC(=O)[C@@H](N)CSSC[C@@H](C(=O)O)NC(=O)[C@H](C(C)C)NC(=O)[C@H](CCC(N)=O)NC(=O)[C@H](CC(C)C)NC(=O)[C@H](CO)NC(=O)[C@H](C(C)C)NC(=O)[C@H](CCCCN)NC1=O [SySA-79] (H-CVRVRVNNGRRRLKVSLQVC-OH; disulfide 1-20; N-terminus and C-terminus assumed) |  | 64 µg/mL | 32 µg/mL | 64 µg/mL | 32 µg/mL
CC[C@H](C)[C@@H]1NC(=O)[C@H](CCCCN)NC(=O)[C@H](CC(C)C)NC(=O)CNC(=O)[C@H](CCCNC(=N)N)NC(=O)[C@H](CCCNC(=N)N)NC(=O)[C@H](CCCNC(=N)N)NC(=O)[C@H](CC(N)=O)NC(=O)[C@H](CC(N)=O)NC(=O)[C@H](CC(C)C)NC(=O)[C@H](CCCNC(=N)N)NC(=O)[C@H]([C@@H](C)CC)NC(=O)[C@H](CCCNC(=N)N)NC(=O)[C@H](C(C)C)NC(=O)[C@@H](N)CSSC[C@@H](C(=O)O)NC(=O)[C@H](C(C)C)NC(=O)[C@H](CCC(N)=O)NC(=O)[C@H](CC(C)C)NC(=O)[C@H](CO)NC1=O [SySA-82] (H-CVRIRLNNRRRGLKISLQVC-OH; disulfide 1-20; N-terminus and C-terminus assumed) |  | 64 µg/mL | 8 µg/mL | 64 µg/mL | 8 µg/mL
CC[C@H](C)[C@@H]1NC(=O)[C@H](CCCCN)NC(=O)[C@H](C(C)C)NC(=O)CNC(=O)[C@H](CCCNC(=N)N)NC(=O)[C@H](CCCNC(=N)N)NC(=O)[C@H](CCCNC(=N)N)NC(=O)[C@H](CC(=O)O)NC(=O)[C@H](CC(N)=O)NC(=O)[C@H](CC(C)C)NC(=O)[C@H](CCCNC(=N)N)NC(=O)[C@H]([C@@H](C)CC)NC(=O)[C@H]([C@@H](C)O)NC(=O)[C@H](C(C)C)NC(=O)[C@@H](N)CSSC[C@@H](C(=O)O)NC(=O)[C@H](C(C)C)NC(=O)[C@H](CCC(=O)O)NC(=O)[C@H](C(C)C)NC(=O)[C@H](CO)NC1=O [SyRA-7] (H-CVTIRLNDRRRGVKISVEVC-OH; disulfide 1-20) | >256 µg/mL |  |  |  | 
CC[C@H](C)[C@@H]1NC(=O)[C@H](CCCCN)NC(=O)[C@H](CC(C)C)NC(=O)[C@H](CCCNC(=N)N)NC(=O)[C@H](CCCNC(=N)N)NC(=O)[C@H](CCCNC(=N)N)NC(=O)[C@H](CCCNC(=N)N)NC(=O)[C@H](CC(N)=O)NC(=O)[C@H](CC(N)=O)NC(=O)[C@H](CC(C)C)NC(=O)[C@H](CCCNC(=N)N)NC(=O)[C@H](C(C)C)NC(=O)[C@H](CCCNC(=N)N)NC(=O)[C@H](C(C)C)NC(=O)[C@@H](N)CSSC[C@@H](C(=O)O)NC(=O)[C@H](C(C)C)NC(=O)[C@H](CCC(=O)O)NC(=O)[C@H](CC(C)C)NC(=O)[C@H](CO)NC1=O [SySA-78] (H-CVRVRLNNRRRRLKISLEVC-OH; disulfide 1-20; N-terminus and C-terminus assumed) |  | 32 µg/mL | 16 µg/mL | 32 µg/mL | 16 µg/mL
CC[C@H](C)[C@@H]1NC(=O)[C@H]([C@@H](C)O)NC(=O)[C@H](C(C)C)NC(=O)[C@@H](N)CSSC[C@@H](C(=O)O)NC(=O)[C@H](C(C)C)NC(=O)[C@H](CCC(N)=O)NC(=O)[C@H](C(C)C)NC(=O)[C@H]([C@@H](C)O)NC(=O)[C@H](C(C)C)NC(=O)[C@H](CCCNC(=N)N)NC(=O)[C@H](CC(C)C)NC(=O)CNC(=O)[C@H](CCCNC(=N)N)NC(=O)[C@H](CCCNC(=N)N)NC(=O)[C@H](CCCNC(=N)N)NC(=O)[C@H](CC(=O)O)NC(=O)[C@H](CC(=O)O)NC(=O)[C@H](CC(C)C)NC(=O)[C@H](CCCNC(=N)N)NC1=O [SyRA-9] (H-CVTIRLDDRRRGLRVTVQVC-OH; disulfide 1-20) | >256 µg/mL |  |  |  | 
CC[C@H](C)[C@@H]1NC(=O)[C@H](CCCNC(=N)N)NC(=O)[C@H](C(C)C)NC(=O)[C@@H](N)CSSC[C@@H](C(=O)O)NC(=O)[C@H](C(C)C)NC(=O)[C@H](CCC(N)=O)NC(=O)[C@H](CC(C)C)NC(=O)[C@H]([C@@H](C)O)NC(=O)[C@H](C(C)C)NC(=O)[C@H](CCCCN)NC(=O)[C@H](C(C)C)NC(=O)[C@H](CCCNC(=N)N)NC(=O)[C@H](CCCNC(=N)N)NC(=O)[C@H](CCCNC(=N)N)NC(=O)[C@H](CCCNC(=N)N)NC(=O)[C@H](CC(N)=O)NC(=O)[C@H](CC(N)=O)NC(=O)[C@H](CC(C)C)NC(=O)[C@H](CCCNC(=N)N)NC1=O [SySA-80] (H-CVRIRLNNRRRRVKVTLQVC-OH; disulfide 1-20; N-terminus and C-terminus assumed) |  | 16 µg/mL | 16 µg/mL | 16 µg/mL | 16 µg/mL
CC(C)C[C@@H]1NC(=O)[C@H](CCCNC(=N)N)NC(=O)[C@H](CCCNC(=N)N)NC(=O)[C@H](CCCNC(=N)N)NC(=O)CNC(=O)[C@H](CC(N)=O)NC(=O)[C@H](CC(N)=O)NC(=O)[C@H](CC(C)C)NC(=O)[C@H](CCCNC(=N)N)NC(=O)[C@H](C(C)C)NC(=O)[C@H](CCCNC(=N)N)NC(=O)[C@H](CC(C)C)NC(=O)[C@@H](N)CSSC[C@@H](C(=O)O)NC(=O)[C@H](C(C)C)NC(=O)[C@H](CCC(N)=O)NC(=O)[C@H](CC(C)C)NC(=O)[C@H](CO)NC(=O)[C@H](C(C)C)NC(=O)[C@H](CCCCN)NC1=O [SySA-71] (H-CLRVRLNNGRRRLKVSLQVC-OH; disulfide 1-20; N-terminus and C-terminus assumed) |  | 16 µg/mL | 32 µg/mL | 16 µg/mL | 32 µg/mL
CC[C@H](C)[C@@H]1NC(=O)[C@H](CC(=O)O)NC(=O)[C@H](C(C)C)NC(=O)[C@H](CCCCN)NC(=O)[C@H]([C@@H](C)CC)NC(=O)[C@H](CCCNC(=N)N)NC(=O)[C@@H](N)CSSC[C@@H](C(=O)O)NC(=O)[C@H](CCC(=O)O)NC(=O)[C@H](CC(C)C)NC(=O)[C@H](CCC(N)=O)NC(=O)[C@H](CC(C)C)NC(=O)[C@H](CCCNC(=N)N)NC(=O)[C@H](C(C)C)NC(=O)[C@H](CCCNC(=N)N)NC(=O)CNC(=O)[C@H](CCCNC(=N)N)NC(=O)[C@H](CCCNC(=N)N)NC(=O)[C@H](CC(=O)O)NC(=O)[C@H](CC(=O)O)NC1=O [SyRC-7] (H-CRIKVDIDDRRGRVRLQLEC-OH; disulfide 1-20) | >256 µg/mL |  |  |  | 
CC(C)C[C@@H]1NC(=O)[C@H](CCCNC(=N)N)NC(=O)[C@H](C(C)C)NC(=O)[C@H](CCCNC(=N)N)NC(=O)[C@H](CC(C)C)NC(=O)[C@@H](N)CSSC[C@@H](C(=O)O)NC(=O)[C@H](C(C)C)NC(=O)[C@H](CCC(N)=O)NC(=O)[C@H](C(C)C)NC(=O)[C@H](CO)NC(=O)[C@H](C(C)C)NC(=O)[C@H](CCCCN)NC(=O)[C@H](C(C)C)NC(=O)[C@H](CCCNC(=N)N)NC(=O)[C@H](CCCNC(=N)N)NC(=O)CNC(=O)CNC(=O)[C@H](CC(N)=O)NC(=O)[C@H](CC(N)=O)NC1=O [SyRA-3] (H-CLRVRLNNGGRRVKVSVQVC-OH; disulfide 1-20) | > 256 µg/mL |  |  |  | 
